Laboratory results as given in patent publication US7273846B2, “Selective melanin-concentrating hormone type-1 receptor agonists” (priority 2002, dated 2007).
Residues, ends and D or L forms follow the SMILES beside them.

Tests used:
MCH-1R [1] = target: T1, MCH-1R (Homo sapiens, UniProt Q99705)
MCH-1R [2] = target: T1, MCH-1R; experiment: Aequorin bioluminescence functional assay, 293AEQ17/MCH-1R cells; format: cell-based; parameters: expressed in transfected cells; conditions: for MCH-1R Activation %: human MCH = 100, activation at 10 μM concentration; for fold lower agonist activity at hMCH-1R: relative to Ac-hMCH(6-16)-NH2
Method: (§1) The aequorin bioluminescence assay is a reliable test for identifying G-protein-coupled receptors that couple through the G protein subunit family consisting of Gq and G11. Gq and G11 coupling leads to the activation of phospholipase C, mobilization of intracellular calcium, and activation of protein kinase C.
Stable cell lines expressing either the MCH-1R or the MCH-2R and the aequorin reporter protein were used. The assay was performed using a Luminoskan RT luminometer (Labsystems Inc., Gaithersburg, Md.) controlled by custom software written for a Macintosh PowerPC 6100.
(§2) The cells were harvested, washed once in ECB medium, and resuspended to 500,000 cells/mL. 100 μL of cell suspension (corresponding to 5×10^4 cells) was then injected into the test plate containing the hMCH peptides, and the integrated light emission was recorded over 30 seconds, in 0.5-s units. 20 μL of lysis buffer (0.1% final Triton X-100 concentration) was then injected and the integrated light emission recorded over 10 seconds, in 0.5-s units. The “fractional response” values for each well were calculated by taking the ratio of the integrated response to the initial challenge to the total integrated luminescence including the Triton X-100 lysis response.

MCH-1R [3] = target: T1, MCH-1R; experiment: biochemical
MCH-2R [4] = target: T2, MCH-2R (Homo sapiens, UniProt Q969V1); experiment: Aequorin bioluminescence functional assay, 293AEQ17/MCH-2R cells; format: cell-based; parameters: expressed in transfected cells; MCH-2R Activation %: concentration or dose not given beside the values; conditions: for MCH-2R Activation %: human MCH = 100
Description: as §1
Stable cell lines expressing either the MCH-1R or the MCH-2R and the aequorin reporter protein were used.
as §2

MCH-2R [5] = target: T2, MCH-2R; experiment: Radioligand binding assay (SPA), MCH-2R; conditions: for IC50: MCH-2R IC50, [125I]-[Phe13,Tyr19]-hMCH SPA, COS or CHO MCH-2R membranes

T1 sequence (Q99705 whole entry): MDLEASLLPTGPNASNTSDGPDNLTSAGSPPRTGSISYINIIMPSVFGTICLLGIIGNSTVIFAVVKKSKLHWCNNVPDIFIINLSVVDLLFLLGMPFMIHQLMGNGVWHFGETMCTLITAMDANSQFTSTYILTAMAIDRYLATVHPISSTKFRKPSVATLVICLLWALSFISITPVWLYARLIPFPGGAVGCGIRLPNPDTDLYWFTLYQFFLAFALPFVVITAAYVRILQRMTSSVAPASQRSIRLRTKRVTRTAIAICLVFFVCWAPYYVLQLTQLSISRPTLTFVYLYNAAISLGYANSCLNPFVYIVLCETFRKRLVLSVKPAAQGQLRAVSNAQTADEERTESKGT
T2 sequence (Q969V1 whole entry): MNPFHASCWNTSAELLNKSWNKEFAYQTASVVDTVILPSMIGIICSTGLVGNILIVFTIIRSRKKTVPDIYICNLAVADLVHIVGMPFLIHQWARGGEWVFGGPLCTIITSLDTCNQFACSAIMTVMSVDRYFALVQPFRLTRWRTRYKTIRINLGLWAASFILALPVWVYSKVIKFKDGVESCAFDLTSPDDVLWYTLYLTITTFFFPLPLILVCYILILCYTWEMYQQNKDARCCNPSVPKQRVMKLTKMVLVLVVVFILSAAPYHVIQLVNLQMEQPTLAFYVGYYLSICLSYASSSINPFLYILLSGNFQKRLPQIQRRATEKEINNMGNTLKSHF

Row | Compound | Selectivity 2/1 (MCH-2R/MCH-1R IC50 binding ratio) (MCH-1R [1]) | Selectivity 2/1 (MCH-2R/MCH-1R EC50 activity ratio) (MCH-1R [2]) | MCH-1R Activation % (MCH-1R [2]) | IC50 (MCH-1R [3]) | MCH-2R Activation % (MCH-2R [4]) | fold lower binding affinity at hMCH-1R (MCH-1R [1]; relative to Ac-hMCH(6-16)-NH2) | fold lower agonist activity at hMCH-1R (MCH-1R [2]) | binding to hMCH-2R in words (MCH-2R [5]) | IC50 (MCH-2R [5]) | EC50 (MCH-2R [4]; aequorin, 293AEQ17/MCH-2R cells) | EC50 (MCH-1R [2]; aequorin, 293AEQ17/MCH-1R cells, read-out: MCH-1R EC50) | fold lower agonist potency at hMCH-2R (MCH-2R [4]; relative to Ac-hMCH(6-16)-NH2) | agonism at hMCH-1R in words (MCH-1R [2]) | agonism at hMCH-2R in words (MCH-2R [4])
1 | CSCC[C@@H]1NC(=O)[C@@H](NC(=O)[C@@H](CCCCN)NC(C)=O)CSSC[C@@H](C(N)=O)NC(=O)[C@@H]2CCCN2C(=O)[C@H](CCCNC(=N)N)NC(=O)[C@H](Cc2ccc(O)cc2)NC(=O)[C@H](C(C)C)NC(=O)[C@H](CCCNC(=N)N)NC(=O)CNC(=O)[C@H](CC(C)C)NC1=O [SEQ. ID. NO. 13] | 3800 | 22 | 130% | 0.3 nM | 55% | – | – | – | – | – | – | – | – | –
2 | CSCC[C@@H]1NC(=O)CCSSC[C@@H](C(N)=O)NC(=O)[C@@H]2CCCN2C(=O)[C@H](CCCNC(=N)N)NC(=O)[C@H](Cc2ccc(O)cc2)NC(=O)[C@H](C(C)C)NC(=O)[C@H](CCCNC(=N)N)NC(=O)CNC(=O)[C@H](CC(C)C)NC1=O [SEQ. ID. NO. 15] | 500 | 5 | 92% | – | 47% | about 5 fold | ~30 fold | very weak ligand | 3500 nM | > 3000 nM | – | – | – | –
3 | CSCC[C@@H]1NC(=O)[C@@H](NC(=O)[C@H](CCCNC(=N)N)NC(C)=O)CSSC[C@@H](C(N)=O)NC(=O)[C@@H]2CCCN2C(=O)[C@H](CCCNC(=N)N)NC(=O)[C@H](Cc2ccc(O)cc2)NC(=O)[C@H](C(C)C)NC(=O)[C@H](CCCNC(=N)N)NC(=O)[C@@H]2CCCN2C(=O)[C@H](CC(C)C)NC1=O [SEQ. ID. NO. 22] | 5 | – | 10% | – | 13% | – | – | – | 3500 nM | – | > 10000 nM | – | virtually inactive at micromolar concentrations | virtually inactive at micromolar concentrations

More lines, main results first:

Row | Selectivity 2/1 (MCH-2R/MCH-1R IC50 binding ratio) (MCH-1R [1]) | Selectivity 2/1 (MCH-2R/MCH-1R EC50 activity ratio) (MCH-1R [2]) | MCH-1R Activation % (MCH-1R [2]) | IC50 (MCH-1R [3]) | MCH-2R Activation % (MCH-2R [4]) | fold lower binding affinity at hMCH-1R (MCH-1R [1]; relative to Ac-hMCH(6-16)-NH2) | fold lower agonist activity at hMCH-1R (MCH-1R [2]) | binding to hMCH-2R in words (MCH-2R [5]) | IC50 (MCH-2R [5]) | EC50 (MCH-2R [4]; aequorin, 293AEQ17/MCH-2R cells) | EC50 (MCH-1R [2]; aequorin, 293AEQ17/MCH-1R cells, read-out: MCH-1R EC50) | fold lower agonist potency at hMCH-2R (MCH-2R [4]; relative to Ac-hMCH(6-16)-NH2) | Compound | agonism at hMCH-1R in words (MCH-1R [2]) | agonism at hMCH-2R in words (MCH-2R [4])
4 | 11 | 0.25 | 76% | – | 74% | – | – | – | 55 nM | – | – | – | CSCC[C@@H]1NC(=O)[C@@H](NC(=O)[C@H](CCCNC(=N)N)NC(C)=O)CSSC[C@@H](C(N)=O)NC(=O)[C@@H]2CCCN2C(=O)[C@H](CCCNC(=N)N)NC(=O)[C@H](Cc2ccc(O)cc2)NC(=O)[C@H](C(C)C)NC(=O)[C@H](CCCNC(=N)N)NC(=O)[C@H](CC2CCCCC2)NC(=O)[C@H](CC(C)C)NC1=O [SEQ. ID. NO. 19] | poorly activated both receptors | poorly activated both receptors
5 | 86 | 1 | 43% | – | 40% | – | 300 fold | – | 1460 nM | – | – | 300 fold | CSCC[C@@H]1NC(=O)[C@@H](NC(=O)[C@H](CCCNC(=N)N)NC(C)=O)CSSC[C@@H](C(N)=O)NC(=O)[C@@H]2CCCN2C(=O)[C@H](CCCNC(=N)N)NC(=O)[C@H](Cc2ccc(O)cc2)NC(=O)[C@H](C(C)C)NC(=O)[C@H](CCCNC(=N)N)NC(=O)[C@H](CCCCN)NC(=O)[C@H](CC(C)C)NC1=O [SEQ. ID. NO. 24] | – | –
6 | 100 | 0.7 | 120% | – | 87% | – | – | – | 55 nM | – | – | – | CSCC[C@@H]1NC(=O)[C@@H](NC(=O)[C@H](CCCNC(=N)N)NC(C)=O)CSSC[C@@H](C(N)=O)NC(=O)[C@@H]2CCCN2C(=O)[C@H](CCCNC(=N)N)NC(=O)[C@H](Cc2ccc(O)cc2)NC(=O)[C@H](C(C)C)NC(=O)[C@H](CCCNC(=N)N)NC(=O)[C@H](CO)NC(=O)[C@H](CC(C)C)NC1=O [SEQ. ID. NO. 26] (HELM PEPTIDE1{[ac].R.C.M.L.S.R.V.Y.R.P.C.[am]}$PEPTIDE1,PEPTIDE1,3:R3-12:R3$$$V2.0) | – | –
